Source: paper PMC10458859, “Stem Cell Bioengineering with Bioportides: Inhibition of Planarian Head Regeneration with Peptide Mimetics of Eyes Absent Proteins” (Pharmaceutics, 2023)
[ ]: non-standard residue; d: D form. Aib = CC(C)(N)C(=O)O

Tests used:
[1] = Circular dichroism secondary structure analysis; type: physicochemical; conditions: CD; for difference in percentage α-helicity in the presence of lipid membranes: DMPC and DMPS vesicles, lipid:peptide 100 to 1
Method: Secondary structure analyses of Djeya1 peptides were performed on a Jasco J-815 CD spectrometer (Jasco Ltd., Heckmondwike, UK). Peptides (0.01 mg mL^−^1) were dissolved in either 1 × phosphate buffered saline (PBS) at pH 7.4 or in a 2,2,2-tetrafluoroethanol (TFE) and 1 × PBS mixture (50.0% v/v). All buffers were prepared using ultra-pure water (resistivity 18 MΩ cm), PBS and TFE (Scientific Laboratory Supplies Ltd., Nottingham, UK). CD experiments were also performed at peptide:lipid ratios of 1:100, whilst 1,2-dimyristoyl-sn-glycero-3-phosphatidylcholine (DMPC) and 1,2-dimyristoyl-sn-glycero-3-phosphatidylserine (DMPS) (5 mg mL^−^1) (Avanti Polar Lipids, Alabaster, AL, USA) were dissolved separately in chloroform (HPLC grade, VWR International Ltd Lutterworth, UK) and dried under N2 gas. The lipid film was rehydrated using 1 × PBS, pH 7.5 for 1 h or until the solution was no longer turbid. The solution then underwent 5 cycles of freeze thaw before the lipid/peptide samples were prepared by the addition of peptide stock solution (final concentration 0.01 mg mL^−^1). Far UV CD spectra (180 nm to 260 nm) were recorded at 20 °C using 0.5 nm intervals, a bandwidth of 1 nm, a scan speed of 50 nm min^−1 and a 10 mm path-length cell. Ten accumulations were selected to average a single spectrum. Samples without peptide were prepared for background spectral subtraction. Data, baseline-subtracted and averaged CD, were analyzed using the Dichroweb server CDSSTR and SELCON3 reference dataset 3 [23, 24, 25]. To generate percentage structure averages, these analyses were repeated four times.

[2] = system: decapitated S. mediterranea; assay: Anterior pole regeneration and eye development assay; type: in vivo, Schmidtea mediterranea; conditions: for influence upon planarian head regeneration: 25 μM exogenous application to decapitated S. mediterranea, monitored over 8 days; for response to light: 25 μM in PAM after amputation, day 8; for response to light / regeneration of the anterior pole, including the eye spots: re-treated day 4; for regeneration of the anterior pole, including the eye spots: 25 μM in PAM immediately after transverse amputation, observed day 8, compared to PAM alone; for animals that achieved full regeneration / animals that had commenced the development of photoreceptors within the unpigmented blastema: n = 9; for animals that had commenced the development of photoreceptors within the unpigmented blastema: 25 μM, day 9 post amputation
Method: Adult planaria, 4–6 mm in length, and selected for experimentation were starved 5 days prior to amputation. Transverse amputation of planarian heads, post-auricle and pre-pharynx, induced blastema formation in the trunk section, leading to eye regeneration and head remodeling.
Post amputation, planaria were immediately treated with exogenously added Djeya1 analogues in 35 mm diameter × 10 mm depth culture dishes (VWR International Ltd., Lutterworth, UK) to a final volume of 4 mL PAM and maintained at 20 °C. PAM, containing Djeya1 analogues, was replenished 4 days post amputation. […]

[3] = system: U373MG cells; assay: Quantitative peptide uptake, U373MG; type: cell-based; conditions: TAMRA-labelled peptides 1, 2.5, 5 μM, 1 h, 37 °C, lysate fluorescence 544/590 nm, two experiments in triplicate
Method: (§1) U373MG and U251 cells were maintained as above and then transferred to 6-well plates and grown to 80% confluence. Cells were washed and maintained in phenol red-free DMEM and subsequently treated with TAMRA-conjugated Djeya1 analogues at final concentrations of 1 μM, 2.5 μM, and 5 μM for 1 h in culture conditions as above. Cells were washed four times, detached with 300 μL of 1% (w/v) trypsin (without phenol red) at 37 °C, collected by centrifugation, and lysed in 300 μL 0.1 M NaOH for 2 h on ice. A total of 250 μL of each sample cell lysate was transferred to a black 96-well plate and analysed using a Thermo Fischer Scientific (Loughborough, UK) Fluoroskan Ascent FL fluorescence spectrophotometer (λAbs 544 nm/λEm 590 nm).

[4] = system: U251 cells; assay: Quantitative peptide uptake, U251; type: cell-based; conditions: 1 h, 37 °C; for rank order of uptake efficacy: U251, TAMRA-labelled peptides 1, 2.5, 5 μM, lysate fluorescence 544/590 nm, two experiments in triplicate
Method: as §1

[5] = 50% (v/v) TFE/PBS pH 7.4, peptide 0.01 mg mL-1, 20 °C
[6] = 50% (v/v) TFE/PBS pH 7.4, peptide 0.01 mg mL-1, 20 °C, Dichroweb, analyses repeated four times
[7] = DMPC vesicles, lipid:peptide 100 to 1, PBS, peptide 0.01 mg mL-1, 20 °C
[8] = DMPS vesicles, lipid:peptide 100 to 1, PBS, peptide 0.01 mg mL-1, 20 °C
[9] = PBS pH 7.4, peptide 0.01 mg mL-1, 20 °C, Dichroweb CDSSTR/SELCON3, analyses repeated four times
[10] = PBS pH 7.4, peptide 0.01 mg mL-1, 20 °C, Dichroweb, analyses repeated four times
[11] = 25 μM treatment, 30 days post amputation, in PAM

## H-RKLAFRYRRIKELYNSYR-NH2 [Djeya1, octadecapeptide CPP mimicking the α5 helix of the Eya domain of eyes absent proteins]
[1]; [5]
  Unordered: 20.00 ± 1.41%
  ß-Strand: 27.55 ± 3.53%
  ß-Turns: 7.00 ± 0.00%
[1]; [6]
  α-helix: 45.50 ± 4.94%
[1]; [7]
  Unordered: 22.00 ± 0.00%
  ß-Turns: 8.00 ± 0.0%
  α-helix: 44.00 ± 1.53%
[1]; [8]
  Unordered: 20.00 ± 0.00%
  ß-Strand: 26.00 ± 1.28%
  ß-Turns: 8.00 ± 0.00%
  α-helix: 47.00 ± 1.24%
[1]; [9]
  α-helix: 43.00 ± 1.73%
[1]; [10]
  Unordered: 20.00 ± 1.73%
  ß-Strand: 30.33 ± 0.58%
  ß-Turns: 6.67 ± 0.58%
[2]
  influence upon planarian head regeneration: inactive

## H-RKLAFRYRRIKELYN[Aib]YR-NH2 (SMILES CC[C@H](C)[C@H](NC(=O)[C@H](CCCNC(=N)N)NC(=O)[C@H](CCCNC(=N)N)NC(=O)[C@H](Cc1ccc(O)cc1)NC(=O)[C@H](CCCNC(=N)N)NC(=O)[C@H](Cc1ccccc1)NC(=O)[C@H](C)NC(=O)[C@H](CC(C)C)NC(=O)[C@H](CCCCN)NC(=O)[C@@H](N)CCCNC(=N)N)C(=O)N[C@@H](CCCCN)C(=O)N[C@@H](CCC(=O)O)C(=O)N[C@@H](CC(C)C)C(=O)N[C@@H](Cc1ccc(O)cc1)C(=O)N[C@@H](CC(N)=O)C(=O)NC(C)(C)C(=O)N[C@@H](Cc1ccc(O)cc1)C(=O)N[C@@H](CCCNC(=N)N)C(N)=O) [[Aib^16]Djeya1, Aib-substituted Djeya1 analogue, position 16; bioportide]
[1]; [5]
  Unordered: 19.50 ± 0.71%
  ß-Strand: 27.50 ± 0.71%
  ß-Turns: 7.00 ± 0.00%
[1]; [6]
  α-helix: 46.00 ± 1.41%
[1]
  difference in percentage α-helicity in the presence of lipid membranes: No difference
[1]; [7]
  Unordered: 22.00 ± 0.71%
  ß-Strand: 30.00 ± 0.71%
  ß-Turns: 7.00 ± 0.71%
  α-helix: 42.00 ± 0.71%
[1]; [8]
  Unordered: 22.00 ± 0.71%
  ß-Strand: 30.00 ± 0.71%
  ß-Turns: 8.00 ± 0.71%
  α-helix: 42.00 ± 0.00%
[1]; [9]
  α-helix: 39.67 ± 4.04%
[1]; [10]
  Unordered: 21.00 ± 1.00%
  ß-Strand: 31.67 ± 2.87%
  ß-Turns: 7.33 ± 0.58%
[2]
  influence upon planarian head regeneration: delay head regeneration
  response to light: unresponsive to light
  regeneration of the anterior pole, including the eye spots: absent
  animals that had commenced the development of photoreceptors within the unpigmented blastema: 67%
[2]; [11]
  animals that achieved full regeneration: all
[3]
  rank order of uptake efficacy: [Aib^16]Djeya1 = [Aib^10]Djeya1 > [Aib^13]Djeya1
[4]
  rank order of uptake efficacy: [Aib^13]Djeya1 > [Aib^16]Djeya1 > [Aib^10]Djeya1

## H-RKLAFRYRRIKE[Aib]YNSYR-NH2 (SMILES CC[C@H](C)[C@H](NC(=O)[C@H](CCCNC(=N)N)NC(=O)[C@H](CCCNC(=N)N)NC(=O)[C@H](Cc1ccc(O)cc1)NC(=O)[C@H](CCCNC(=N)N)NC(=O)[C@H](Cc1ccccc1)NC(=O)[C@H](C)NC(=O)[C@H](CC(C)C)NC(=O)[C@H](CCCCN)NC(=O)[C@@H](N)CCCNC(=N)N)C(=O)N[C@@H](CCCCN)C(=O)N[C@@H](CCC(=O)O)C(=O)NC(C)(C)C(=O)N[C@@H](Cc1ccc(O)cc1)C(=O)N[C@@H](CC(N)=O)C(=O)N[C@@H](CO)C(=O)N[C@@H](Cc1ccc(O)cc1)C(=O)N[C@@H](CCCNC(=N)N)C(N)=O) [[Aib^13]Djeya1, Aib-substituted Djeya1 analogue, position 13; bioportide]
[1]; [5]
  Unordered: 22.33 ± 1.50%
  ß-Strand: 31.00 ± 2.08%
  ß-Turns: 7.33 ± 0.05%
[1]; [6]
  α-helix: 40.00 ± 2.64%
[1]; 50% TFE/PBS (v/v) compared with PBS
  effect of 50% TFE/PBS on α-helical structure: did not enhance
[1]
  difference in percentage α-helicity in the presence of lipid membranes: No difference
[1]; [7]
  Unordered: 22.00 ± 0.71%
  ß-Strand: 30.00 ± 0.71%
  ß-Turns: 8.00 ± 0.71%
  α-helix: 42.00 ± 0.71%
[1]; [8]
  Unordered: 21.00 ± 0.71%
  ß-Strand: 30.00 ± 0.71%
  ß-Turns: 7.00 ± 0.71%
  α-helix: 42.00 ± 0.00%
[1]; [9]
  α-helix: 40.67 ± 1.52%
[1]; [10]
  Unordered: 22.33 ± 1.52%
  ß-Strand: 30.00 ± 1.00%
  ß-Turns: 7.00 ± 0.00%
[2]
  influence upon planarian head regeneration: delay head regeneration
  response to light: unresponsive to light
  regeneration of the anterior pole, including the eye spots: absent
  animals that had commenced the development of photoreceptors within the unpigmented blastema: 67%
[2]; [11]
  animals that remained unregenerated and in stasis: 33%
  animals that achieved full regeneration: 67%
[3]
  rank order of uptake efficacy: [Aib^16]Djeya1 = [Aib^10]Djeya1 > [Aib^13]Djeya1
[4]; TAMRA-labelled peptide
  uptake efficacy into U251 cells compared with U373MG cells: increased uptake efficacy
[4]
  rank order of uptake efficacy: [Aib^13]Djeya1 > [Aib^16]Djeya1 > [Aib^10]Djeya1

## H-RKLAFRYRR[Aib]KELYNSYR-NH2 (SMILES CC(C)C[C@H](NC(=O)[C@H](CCCCN)NC(=O)[C@@H](N)CCCNC(=N)N)C(=O)N[C@@H](C)C(=O)N[C@@H](Cc1ccccc1)C(=O)N[C@@H](CCCNC(=N)N)C(=O)N[C@@H](Cc1ccc(O)cc1)C(=O)N[C@@H](CCCNC(=N)N)C(=O)N[C@@H](CCCNC(=N)N)C(=O)NC(C)(C)C(=O)N[C@@H](CCCCN)C(=O)N[C@@H](CCC(=O)O)C(=O)N[C@@H](CC(C)C)C(=O)N[C@@H](Cc1ccc(O)cc1)C(=O)N[C@@H](CC(N)=O)C(=O)N[C@@H](CO)C(=O)N[C@@H](Cc1ccc(O)cc1)C(=O)N[C@@H](CCCNC(=N)N)C(N)=O) [[Aib^10]Djeya1, Aib-substituted Djeya1 analogue, position 10]
[1]; [5]
  Unordered: 20.00 ± 0.00%
  ß-Strand: 21.00 ± 0.02%
  ß-Turns: 7.50 ± 0.71%
[1]; [6]
  α-helix: 51.50 ± 0.07%
[1]; [7]
  Unordered: 22.00 ± 1.41%
  ß-Turns: 7.00 ± 1.41%
  α-helix: 45.00 ± 1.58%
[1]; [8]
  Unordered: 16.00 ± 0.00%
  ß-Strand: 15.00 ± 0.00%
  ß-Turns: 5.00 ± 0.00%
  α-helix: 63.00 ± 2.82%
[1]; [9]
  α-helix: 41.33 ± 1.15%
[1]; [10]
  Unordered: 20.67 ± 0.58%
  ß-Strand: 31.33 ± 0.58%
  ß-Turns: 7.00 ± 0.00%
[2]
  influence upon planarian head regeneration: inactive
[3]
  rank order of uptake efficacy: [Aib^16]Djeya1 = [Aib^10]Djeya1 > [Aib^13]Djeya1
[4]
  rank order of uptake efficacy: [Aib^13]Djeya1 > [Aib^16]Djeya1 > [Aib^10]Djeya1
